Assay results as given in patent US20240150377A1, “MODULATORS OF CYSTIC FIBROSIS TRANSMEMBRANE CONDUCTANCE REGULATOR” (VERTEX PHARMACEUTICALS INCORPORATED, priority 2020, published 2024).
Like-named read-outs stand apart in the source and are kept apart here. Each block holds one molecule with its values, some of them ahead of it.

Target: T1, CFTR (Homo sapiens, UniProt P13569, DEL508-508)
T1 construct: endogenous in cells; host or cells: primary human bronchial epithelial cells from CF subjects (F508del/MF-HBE), differentiated at air-liquid interface
T1 sequence (P13569 with tags, fused parts or gaps DEL508-508): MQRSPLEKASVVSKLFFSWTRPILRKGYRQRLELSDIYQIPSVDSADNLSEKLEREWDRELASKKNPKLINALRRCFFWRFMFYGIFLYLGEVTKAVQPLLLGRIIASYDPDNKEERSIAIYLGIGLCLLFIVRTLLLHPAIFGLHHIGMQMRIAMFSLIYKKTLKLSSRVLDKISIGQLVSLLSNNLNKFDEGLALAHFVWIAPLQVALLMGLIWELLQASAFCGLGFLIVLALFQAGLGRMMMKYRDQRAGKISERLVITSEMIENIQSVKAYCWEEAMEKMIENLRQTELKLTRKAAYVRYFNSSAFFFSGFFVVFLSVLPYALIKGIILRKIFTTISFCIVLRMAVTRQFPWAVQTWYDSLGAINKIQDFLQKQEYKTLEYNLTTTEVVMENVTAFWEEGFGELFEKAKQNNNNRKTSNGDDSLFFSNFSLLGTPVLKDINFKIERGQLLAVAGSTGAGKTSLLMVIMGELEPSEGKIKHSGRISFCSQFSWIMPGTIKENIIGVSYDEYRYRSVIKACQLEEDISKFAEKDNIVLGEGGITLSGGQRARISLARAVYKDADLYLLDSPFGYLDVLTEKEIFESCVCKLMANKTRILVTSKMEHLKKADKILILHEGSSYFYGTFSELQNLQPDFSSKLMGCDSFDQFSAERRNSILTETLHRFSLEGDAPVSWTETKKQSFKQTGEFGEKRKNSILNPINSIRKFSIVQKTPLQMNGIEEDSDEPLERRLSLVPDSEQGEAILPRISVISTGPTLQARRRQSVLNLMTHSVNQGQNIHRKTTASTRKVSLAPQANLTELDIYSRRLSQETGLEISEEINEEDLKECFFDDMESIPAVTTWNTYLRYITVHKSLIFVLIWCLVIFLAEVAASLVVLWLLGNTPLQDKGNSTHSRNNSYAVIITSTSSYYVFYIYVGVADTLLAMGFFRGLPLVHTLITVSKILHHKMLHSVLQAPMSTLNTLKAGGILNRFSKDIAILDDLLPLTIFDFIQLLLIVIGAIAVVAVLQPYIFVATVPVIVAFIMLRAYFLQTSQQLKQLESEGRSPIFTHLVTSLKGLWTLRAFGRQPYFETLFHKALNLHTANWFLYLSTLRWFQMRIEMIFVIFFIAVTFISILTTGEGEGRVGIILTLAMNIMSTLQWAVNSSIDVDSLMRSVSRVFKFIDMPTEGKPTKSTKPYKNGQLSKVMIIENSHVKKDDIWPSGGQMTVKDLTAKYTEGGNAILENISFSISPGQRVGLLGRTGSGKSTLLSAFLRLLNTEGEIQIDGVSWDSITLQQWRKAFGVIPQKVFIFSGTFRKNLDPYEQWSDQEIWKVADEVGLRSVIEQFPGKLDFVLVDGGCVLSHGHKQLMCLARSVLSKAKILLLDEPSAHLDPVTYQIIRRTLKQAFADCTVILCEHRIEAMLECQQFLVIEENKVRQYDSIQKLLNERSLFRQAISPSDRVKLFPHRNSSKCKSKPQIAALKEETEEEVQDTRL
Assay: HBE assay: Ussing chamber assay of CFTR-mediated short-circuit currents
Assay type: cell-based
Settings: for activation at 10 µM: read-out: HBE Activity at 10 μM (%)
In short: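 CFTR-mediated Isc (μA/cm²) equals the peak response to apical 20 μM forskolin minus the residual after a 20 μM each BPO/GlyH-101/CFTR inhibitor 172 cocktail, recorded in Ussing chambers at Vhold 0 mV, 37 °C, pH 7.4, with 30 μM apical amiloride. Cells were F508del/MF HBE cultures preincubated 18-24 h with corrector (concentration range or 10 μM) plus 1 μM ivacaftor in 20% human serum.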

[1] = Table 10, read-out: HBE Max activity (%)
[2] = HBE assay, read-out: HBE Max activity (%)
[3] = Table 11, read-out: HBE Max Activity (%)

Structure (SMILES): Cc1cccc(C)c1-c1cc2nc(n1)NS(=O)(=O)c1cccc(c1)C(=O)N(Cc1ccc(-c3ccccc3)cn1)[C@H](CC(C)(C)C)CO2 [Compound 499]
EC50 (Table 10, read-out: HBE EC50): < 1 µM
Emax [1]: > 60%

Structure (SMILES): Cc1cccc(C)c1-c1cc2nc(n1)NS(=O)(=O)c1cccc(c1)C(=O)N(CC1CC(N3C[C@@H](C)O[C@@H](C)C3)C1)[C@H](CC(C)(C)C)CO2 (single isomer, unassigned) [Compound 63]
EC50 (read-out: HBE EC50, Table 10): < 1 µM

Structure (SMILES): Cc1cccc(C)c1-c1cc2nc(n1)NS(=O)(=O)c1cccc(c1)C(=O)N(Cc1ncc(N3CCC4(CC3)CC4)cn1)[C@H](CC(C)(C)C)CO2 [Compound 708]
EC50 (Table 11, read-out: HBE EC50): 1 to 3 µM
Emax [3]: > 60%

Structure (SMILES): COCCN(c1cccc(CN2C(=O)c3cccc(n3)S(=O)(=O)Nc3nc(cc(-c4c(C)cccc4C)n3)OC[C@H]2CC(C)(C)C)n1)C(C)C [Compound 1142]
EC50 (Table 13, read-out: HBE EC50): 1 to 3 µM
Emax (Table 13, read-out: HBE Max Activity (%)): > 60%

Structure (SMILES): Cc1cccc(C)c1-c1cc2nc(n1)NS(=O)(=O)c1cccc(c1)C(=O)N(Cc1ccc(C3=CCCC3)cn1)[C@H](CC(C)(C)C)CO2 [Compound 810]
EC50 (Table 11, read-out: HBE EC50): < 1 µM
Emax [3]: > 60%

Structure (SMILES): Cc1cccc(C)c1-c1cc2nc(n1)NS(=O)(=O)c1cccc(c1)C(=O)N(Cc1cc(CO)ccn1)[C@H](CC(C)(C)C)CO2 [Compound 811]
EC50 (Table 11, read-out: HBE EC50): < 1 µM
Emax [3]: > 60%

Structure (SMILES): Cc1cc(N(C)C)nc(CN2C(=O)c3cccc(c3)S(=O)(=O)Nc3nc(cc(-c4c(C)cccc4C)n3)OC[C@H]2CC(C)(C)C)n1 [Compound 324]
activation at 10 µM (Table 12): > 600%

Structure (SMILES): Cc1cccc(C)c1-c1cc2nc(n1)NS(=O)(=O)c1cccc(c1)C(=O)N(Cc1cccc(N3CCC[C@H]3C)n1)[C@H](CC(C)(C)C)CO2 [Compound 132, (11R)-6-(2,6-Dimethylphenyl)-11-(2,2-dimethylpropyl)-12-({6-[(2R)-2-methylpyrrolidin-1-yl]pyridin-2-yl}methyl)-9-oxa-2λ^6-thia-3,5,12,19-tetraazatricyclo[12.3.1.14,8]nonadeca-1(17),4,6,8(19),14(18),15-hexaene-2,2,13-trione]
EC50 (HBE EC50 (μM), Table 11): < 1 µM
Emax (read-out: HBE Max activity (%)): > 60%

Structure (SMILES): Cc1cccc(C)c1-c1cc2nc(n1)NS(=O)(=O)c1cccc(c1)C(=O)N(CC1CCC(NCC(=O)O)CC1)[C@H](CC(C)(C)C)CO2 (stereo partly shown) [Compound 911]
EC50 (Table 10, read-out: HBE EC50): 3 to 30 µM
Emax [1]: 30 to 60%

Structure (SMILES): Cc1cccc(C)c1-c1cc2nc(n1)NS(=O)(=O)c1cccc(c1)C(=O)N(CC(=O)N1CCc3ccccc3C1C)[C@H](CC(C)(C)C)CO2 (stereo partly shown) [Compound 211]
activation at 10 µM (Table 13): > 600%

Structure (SMILES): Cc1cccc(C)c1-c1cc2nc(n1)NS(=O)(=O)c1cccc(c1)C(=O)N(Cc1ncccc1N(C)CC(C)(C)C)[C@H](CC(C)(C)C)CO2 [Compound 725]
EC50 (Table 11, read-out: HBE EC50): < 1 µM
Emax [3]: > 60%

Results, then the molecule that gave them:

EC50 (HBE assay, read-out: HBE EC50): < 1 µM
Emax [2]: > 60%
Structure (SMILES): COCCN(c1cncc(CN2C(=O)c3cccc(c3)S(=O)(=O)Nc3nc(cc(-c4c(C)cccc4C)n3)OC[C@H]2CC(C)(C)C)n1)C1CCC1 [Compound 1417]

activation at 10 µM (Table 11): > 60%
Structure (SMILES): Cc1cccc(C)c1-c1cc2nc(n1)NS(=O)(=O)c1cccc(c1)C(=O)N(Cc1cnnn1C)[C@H](CC(C)(C)C)CO2 [Compound 774]

EC50 (HBE assay, read-out: HBE EC50): < 1 µM
Emax [2]: > 60%
Structure (SMILES): COC(C)(C)CNc1cncc(CN2C(=O)c3cccc(c3)S(=O)(=O)Nc3nc(cc(-c4c(C)cccc4C)n3)OC[C@H]2CC(C)(C)C)n1 [Compound 1483]

activation at 10 µM (Table 12): > 600%
Structure (SMILES): Cc1cccc(C)c1-c1cc2nc(n1)NS(=O)(=O)c1cccc(c1)C(=O)N(Cc1cc3n(n1)CCC3)[C@H](CC(C)(C)C)CO2 [Compound 455]

EC50 (Table 11, read-out: HBE EC50): < 1 µM
Emax [3]: > 60%
Structure (SMILES): COC1CCN(c2cccc(CN3C(=O)c4cccc(c4)S(=O)(=O)Nc4nc(cc(-c5c(C)cccc5C)n4)OC[C@H]3CC(C)(C)C)n2)CC1 [Compound 722]

EC50 (Table 11, read-out: HBE EC50): < 1 µM
Emax [3]: > 60%
Structure (SMILES): CCOc1cnc(CN2C(=O)c3cccc(c3)S(=O)(=O)Nc3nc(cc(-c4c(C)cccc4C)n3)OC[C@H]2CC(C)(C)C)nc1 [Compound 720]

EC50 (Table 11, read-out: HBE EC50): < 1 µM
Emax [3]: > 60%
Structure (SMILES): Cc1cccc(C)c1-c1cc2nc(n1)NS(=O)(=O)c1cccc(c1)C(=O)N(Cc1cncc(C(C)C)n1)[C@H](CC(C)(C)C)CO2 [Compound 892]
